Test results: US11173126B2, “Nanoalum particles comprising a PAA sizing agent” (priority 2016, dated 2021)

Tests used:
[1] = Particle size (Z-ave) and polydispersity by dynamic light scattering; type: physicochemical; conditions: single non-pegylated phospholipid included during milling; data not shown
C57/BL6 mice = conditions: mouse, in vivo
C57Bl/6 mice = conditions: mouse, in vivo

| Compound | effectiveness as sizing agent (aggregation of alum) [1] | luciferase expression from RNA replicon (C57/BL6 mice) | ID97-specific CD4+ T cell response (CD154, IFN-γ, TNF, IL-2) (C57Bl/6 mice) |
| --- | --- | --- | --- |
| Distearoylglycerophosphoethanolamine [DSPE] | not found to be effective sizing agents |  |  |
| Poly(acrylic acid) [PAA] |  | does not deliver and/or induce an expressible level | low frequency |
| CCCCCCCCCCCCCC(=O)OC[C@H](COP(=O)(O)OCCN)OC(=O)CCCCCCCCCCCCC [DMPE] | not found to be effective sizing agents |  |  |
